Article PMC11027154 (Journal of the American Chemical Society, 2024)
Bridge positions count the residues as written; N and C are the ends. Square brackets hold non-standard residues; d marks the D form. Peptide text beside a SMILES is read from it. * marks the point of attachment. X1 = C[C@@H]1NC(=O)[C@H](CC(=O)O)NC(=O)[C@@H](N)CSCc2cc3cc(c2)CSC[C@@H](C(=O)*)NC(=O)[C@H](CSC3)NC(=O)[C@H](CO)NC1=O; FITC = O=C1OC2(c3ccc(O)cc3Oc3cc(O)ccc32)c2ccc(NC(=S)*)cc21; S5 = C=CCCC[C@](C)(N)C(=O)O; βAla = NCCC(=O)O

Experiments:
[1] = In vitro peptide stability in human serum; format: in vitro ADME; conditions: 25% human serum, 37 °C; for degradation behaviour in serum: up to 48 h, LC-MS
Experimental: The test compounds were separately incubated with 25% human serum at 37 °C; residual starting materials were monitored as a function of time, and degradation products were characterized using LC-MS (Figure 5c). […] Besides terminal degradation, we also observed ring-opening products by hydrolysis of amide bonds within the hydrocarbon macrocycles in two stapled peptides (Figures S28, S29).

circular dichroism = conditions: PBS, pH 7.4, 25 °C
cyclin A1 with a His tag = target: T1, cyclin A1 with a His tag (Homo sapiens, UniProt P78396); assay: Direct fluorescence polarization (FP) binding to cyclin A1; conditions: Figure 5b; FITC-labeled peptide, PBS, 3 h; read-out: FP assay for cyclin A: Kd^app
T1 construct: His; purchased Sino Biological
T1 sequence (P78396 whole entry): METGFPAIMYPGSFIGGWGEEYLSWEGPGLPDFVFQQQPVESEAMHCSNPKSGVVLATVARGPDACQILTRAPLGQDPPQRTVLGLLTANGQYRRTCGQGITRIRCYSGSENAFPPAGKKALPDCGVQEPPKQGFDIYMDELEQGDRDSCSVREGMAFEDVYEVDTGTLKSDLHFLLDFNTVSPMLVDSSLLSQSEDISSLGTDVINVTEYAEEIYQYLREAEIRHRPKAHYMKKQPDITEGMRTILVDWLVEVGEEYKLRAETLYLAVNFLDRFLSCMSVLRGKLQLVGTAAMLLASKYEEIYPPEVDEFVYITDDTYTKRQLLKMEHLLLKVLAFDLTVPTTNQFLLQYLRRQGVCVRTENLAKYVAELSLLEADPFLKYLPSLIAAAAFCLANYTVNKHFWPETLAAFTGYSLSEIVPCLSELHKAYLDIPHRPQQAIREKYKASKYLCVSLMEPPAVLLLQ

[2] = 25 % human serum diluted in RPMI medium; conditions: 37 °C, up to 48 hours (dual 0 – 72 hours in Figure S24)
[3] = residual starting material vs time, LC-MS/HPLC, 95% confidence interval in parentheses

Molecule	degradation behaviour in serum [1]	half-life [1, 3] [h]	helicity (circular dichroism; 5-30 uM) [MRE222]	fragment found [2]	further results
CC[C@H](C)[C@H](NC(=O)[C@@H]1CSCc2cc3cc(c2)CSC[C@H](N)C(=O)N[C@@H](CC(=O)O)C(=O)N[C@@H](C)C(=O)N[C@@H](CO)C(=O)N[C@@H](CSC3)C(=O)N1)C(=O)N[C@@H](CCCNC(=N)N)C(=O)N[C@@H](CCC(=O)O)C(=O)N[C@H](C(=O)N[C@@H](CO)C(=O)N[C@@H](CC(C)C)C(=O)N[C@@H](CC(C)C)C(=O)N[C@@H](CCCCN)C(=O)N[C@@H](CCC(=O)O)C(=O)N[C@@H](Cc1ccc(O)cc1)C(N)=O)[C@@H](C)CC [BAMM] (X1-IREISLLKEY-NH2)	hydrolyzed more slowly and formed stable byproducts	2.1	-5590	–	–
CC[C@H](C)[C@H](NC(=O)[C@H](C)NC(=O)[C@@H](NC(=O)[C@H](CO)NC(=O)[C@H](C)NC(C)=O)[C@@H](C)O)C(=O)N[C@@H](CCCNC(=N)N)C(=O)N[C@@H](CCC(=O)O)C(=O)N[C@H](C(=O)N[C@@H](CO)C(=O)N[C@@H](CC(C)C)C(=O)N[C@@H](CC(C)C)C(=O)N[C@H]1CSCc2cc3cc(c2)CSC[C@H](NC(=O)[C@H](Cc2ccc(O)cc2)NC(=O)[C@H](CCC(=O)O)NC1=O)C(=O)NCC(=O)N[C@H](C(N)=O)CSC3)[C@@H](C)CC [BSM]	hydrolyzed more slowly and formed stable byproducts	2.6	-5000	–	–
CC[C@H](C)[C@H](NC(=O)[C@@H]1CSCc2cc3cc(c2)CSC[C@H](N)C(=O)N[C@@H](CC(=O)O)C(=O)N[C@@H](C)C(=O)N[C@@H](CO)C(=O)N[C@@H](CSC3)C(=O)N1)C(=O)N[C@@H](CCCNC(=N)N)C(=O)N[C@@H](CCC(=O)O)C(=O)N[C@H](C(=O)N[C@@H](CO)C(=O)N[C@@H](CC(C)C)C(=O)N[C@@H](CC(C)C)C(=O)N[C@H]1CSCc2cc3cc(c2)CSC[C@H](NC(=O)[C@H](Cc2ccc(O)cc2)NC(=O)[C@H](CCC(=O)O)NC1=O)C(=O)NCC(=O)N[C@H](C(N)=O)CSC3)[C@@H](C)CC [dual]	oxidation (sulfoxides, M^++16) but not proteolysis was observed	–	–	–	t1/2 relative to staple-2 [1]: > 5.6 ×; t1/2 relative to the linear control [1]: > 49 ×; half-life (h) [1, 3]: 39.5 (>19.3) h; helicity (circular dichroism; 13 uM): -11300 MRE222
CC[C@H](C)[C@@H]1NC(=O)[C@H](C)NC(=O)[C@@](C)(NC(=O)[C@H](CO)NC(=O)[C@H](C)NC(=O)CCNC(=O)CCNC(=O)CCNC(=S)Nc2ccc3c(c2)C(=O)OC32c3ccc(O)cc3Oc3cc(O)ccc32)CCCC=CCCC[C@@](C)(C(=O)N[C@H](C(=O)N[C@@H](CO)C(=O)N[C@@H](CC(C)C)C(=O)N[C@@H](CC(C)C)C(=O)N[C@@H](CCCCN)C(=O)N[C@@H](CCC(=O)O)C(=O)N[C@@H](Cc2ccc(O)cc2)C(N)=O)[C@@H](C)CC)NC(=O)[C@H](CCCNC(=N)N)NC1=O [staple-1-f] ({FITC-βAla-βAla-βAla}-AS[S5]AIR[S5]ISLLKEY-NH2; staple 3-7)	–	–	–	–	Kd (cyclin A1 with a His tag): 1470 ± 210 nM
CC[C@H](C)[C@@H]1NC(=O)[C@H](C)NC(=O)[C@@](C)(NC(=O)[C@H](CO)NC(=O)[C@H](C)NC(C)=O)CCCC=CCCC[C@@](C)(C(=O)N[C@H](C(=O)N[C@@H](CO)C(=O)N[C@@H](CC(C)C)C(=O)N[C@@H](CC(C)C)C(=O)N[C@@H](CCCCN)C(=O)N[C@@H](CCC(=O)O)C(=O)N[C@@H](Cc2ccc(O)cc2)C(N)=O)[C@@H](C)CC)NC(=O)[C@H](CCCNC(=N)N)NC1=O [staple-1] (Ac-AS[S5]AIR[S5]ISLLKEY-NH2; staple 3-7)	overall higher stabilities	5.7	–	–	helicity (circular dichroism; 17 uM): -13200 MRE222
CC[C@H](C)[C@H](NC(=O)[C@H](C)NC(=O)[C@@H](NC(=O)[C@H](CO)NC(=O)[C@H](C)NC(C)=O)[C@@H](C)O)C(=O)N[C@@H](CCCNC(=N)N)C(=O)N[C@@]1(C)CCCC=CCCC[C@@](C)(C(=O)N[C@@H](CCCCN)C(=O)N[C@@H](CCC(=O)O)C(=O)N[C@@H](Cc2ccc(O)cc2)C(N)=O)NC(=O)[C@H](CC(C)C)NC(=O)[C@H](CO)NC(=O)[C@H]([C@@H](C)CC)NC1=O [staple-2] (Ac-ASTAIR[S5]ISL[S5]KEY-NH2; staple 7-11)	overall higher stabilities	7	–	–	helicity (circular dichroism; 22 uM): -11100 MRE222
Ac-ASTAIREISLLCEYCGC	–	–	–	CEYCGC (BSM bicycle), major	–
Ac-ASTAIREISLLKEY-NH2	–	–	-3310	–	–
CDASCCIREISLLCEYCGC	–	–	–	sulfoxide dual; oxidized dual, 8h	–
CDASCCIREISLLKEY	–	–	–	CDASCCIRE (BAMM bicycle with three residues), major	–
